Data set [1] addresses T1, Sulfolobus solfataricus SsoPox variant W263I, SEQ ID NO: 15 (Saccharolobus solfataricus, UniProt Q97VT7, W263I). Type of data set: biochemical. Details: made in house; host or cells: E. coli BL21(DE3)-pGro7/GroEL.
The target in data set [2] is T2, Sulfolobus solfataricus SsoPox variant αsA1 (C258L/I261F/W263A), SEQ ID NO: 21 (Saccharolobus solfataricus, UniProt Q97VT7, C258L/I261F/W263A).
T2 construct: made in house; host or cells: E. coli BL21(DE3)-pGro7/GroEL
T2 sequence (Q97VT7 1-314 C258L/I261F/W263A): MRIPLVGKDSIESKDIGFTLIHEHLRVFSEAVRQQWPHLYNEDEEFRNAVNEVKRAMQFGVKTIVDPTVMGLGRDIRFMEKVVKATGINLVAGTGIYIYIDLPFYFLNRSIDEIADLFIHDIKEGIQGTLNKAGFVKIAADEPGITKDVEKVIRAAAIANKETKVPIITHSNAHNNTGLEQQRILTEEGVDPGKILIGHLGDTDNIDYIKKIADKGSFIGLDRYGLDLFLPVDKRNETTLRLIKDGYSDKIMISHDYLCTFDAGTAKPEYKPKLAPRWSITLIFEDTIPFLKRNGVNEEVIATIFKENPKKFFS
Type of data set: biochemical. The settings on record: pH 8.

The target in data set [3] is T3, Sulfolobus solfataricus SsoPox, wild type (wt), SEQ ID NO: 3 (Saccharolobus solfataricus, UniProt Q97VT7). Format: biochemical. Details: made in house; host or cells: E. coli BL21(DE3)-pGro7/GroEL.
For data set [4], the target named is T3, Sulfolobus solfataricus SsoPox, wild type (wt), SEQ ID NO: 3. Details: made in house; host or cells: E. coli BL21(DE3)-pGro7/GroEL. Conditions: cited from earlier work.
Data set [5] concerns the target T4, Sulfolobus solfataricus SsoPox variant W263V, SEQ ID NO: 17 (Saccharolobus solfataricus, UniProt Q97VT7, W263V). Type of data set: biochemical. Details: made in house; host or cells: E. coli BL21(DE3)-pGro7/GroEL.
Data set [6] concerns the target T5, Sulfolobus solfataricus SsoPox variant W263F (of SEQ ID NO: 3) (Saccharolobus solfataricus, UniProt Q97VT7, W263F). Format: biochemical. Details: made in house; host or cells: E. coli BL21(DE3)-pGro7/GroEL.
For data set [7], the target named is T6, Sulfolobus solfataricus SsoPox variant W263T, SEQ ID NO: 19 (Saccharolobus solfataricus, UniProt Q97VT7, W263T). Format: biochemical. Details: made in house; host or cells: E. coli BL21(DE3)-pGro7/GroEL.
For data set [8], the target named is T7, Sulfolobus solfataricus SsoPox variant W263A, SEQ ID NO: 13 (Saccharolobus solfataricus, UniProt Q97VT7, W263A). Format: biochemical. Details: made in house; host or cells: E. coli BL21(DE3)-pGro7/GroEL.
The target in data set [9] is T8, Sulfolobus solfataricus SsoPox variant W263M, SEQ ID NO: 9 (Saccharolobus solfataricus, UniProt Q97VT7, W263M).
T8 construct: made in house; host or cells: E. coli BL21(DE3)-pGro7/GroEL
Format: biochemical.

Data set [10] addresses T9, Sulfolobus solfataricus SsoPox variant W263L, SEQ ID NO: 11 (Saccharolobus solfataricus, UniProt Q97VT7, W263L).
T9 construct: made in house; host or cells: E. coli BL21(DE3)-pGro7/GroEL
Format: biochemical.

The target in data set [11] is T4, Sulfolobus solfataricus SsoPox variant W263V, SEQ ID NO: 17.
Data set [12] addresses T7, Sulfolobus solfataricus SsoPox variant W263A, SEQ ID NO: 13.
For data set [13], the target named is T6, Sulfolobus solfataricus SsoPox variant W263T, SEQ ID NO: 19.
Data set [14] concerns the target T3, Sulfolobus solfataricus SsoPox, wild type (wt), SEQ ID NO: 3.
The target in data set [15] is T9, Sulfolobus solfataricus SsoPox variant W263L, SEQ ID NO: 11. Type of data set: biochemical. This is another data set of the same source.
For data set [16], the target named is T1, Sulfolobus solfataricus SsoPox variant W263I, SEQ ID NO: 15.
The target of data set [17] is T5, Sulfolobus solfataricus SsoPox variant W263F (of SEQ ID NO: 3).
Data set [18] addresses T8, Sulfolobus solfataricus SsoPox variant W263M, SEQ ID NO: 9. Format: biochemical. The source holds these as a separate data set.
For a further data set, the system named is 3-oxo-C12 AHL. Type of data set: cell-based, Pseudomonas aeruginosa.
Data set [19] is classed as physicochemical. The settings on record: pH 8.

Residue numbers refer to the chain shown, from its start. Numbers in names are those of the source. Where “and” joins values, the source holds several entries; their conditions need not be identical. Equal values may be shown once. Read-outs that look alike come from different tables or passages of the source.

In the case of `CCOP(=O)(OCC)Oc1ccc([N+](=O)[O-])cc1` [Paraoxon, paraoxon], the Enhancement/wt in data set [1] was found to be 2.3; in data set [3], 1; in data set [5] it was 1.7; in [6], 23.3; in [7], 2.0; in data set [8], 6.8. The Enhancement/wt was determined as 14.1 in data set [9] and 4.6 in data set [10]. Besides, the kcat/KM (as a rule, the turnover number divided by the Michaelis constant) in data set [1] (pH 8) was 1.21(±0.59) × 10^3 M^−1s^−1; in data set [4], 6.41(±1.51)×10^3 M^−1s^−1; in data set [4] (pH 8), 5.19(±1.31) × 10^2 M^−1s^−1; in [5] (pH 8), 8.83(±0.3) × 10^2 M^−1s^−1; in [6] (pH 8), 1.21(±0.33)×10^4 M^−1s^−1; in data set [7] (pH 8), 1.06(±0.03) × 10^3 M^−1s^−1. Also, the values for the kcat/KM in data set [8] (pH 8), in data set [9] (pH 8) and in [10] (pH 8) were 3.55(±1.30)×10^3 M^−1s^−1, 7.33(±1.9) × 10^3 M^−1s^−1 and 2.37(±0.33) × 10^3 M^−1s^−1, respectively. Also, the Catalytic activity is recorded as 3.37(±0.94) · 10^4 M^−1s^−1 in data set [2] and 5.19(±1.31) · 10^2 M^−1s^−1 in data set [4] (pH 8). The entries for the “catalytic efficiency improvement induced by SDS” value in [3] and in [10] were 12.4 times and 19.8 times, respectively. In addition, the Km (as a rule, the concentration of substrate that gives half-maximal velocity) is 24300 ± 3720 µM in data set [4] (pH 8), 700 ± 146 µM in data set [6] (pH 8), 1490 ± 351 µM in [8] (pH 8) and 931 ± 163 µM in [9] (pH 8). Also, the kcat (commonly the number of substrate molecules converted per active site and unit of time at saturation) in data set [4] (pH 8) is 12.59 ± 1.26 s⁻¹; in data set [6] (pH 8), 8.47 ± 0.53 s⁻¹; in [8] (pH 8), 5.29 ± 0.69 s⁻¹; in [9] (pH 8), 6.82 ± 0.57 s⁻¹; in data set [10], 3.17 ± 0.18 s⁻¹ and 3.13 ± 0.25 s⁻¹.

On to `CCCCCCCCCC(=O)CC(=O)N[C@H]1CCOC1=O` [3-oxo-C12 AHL], for which the Enhancement/wt in data set [11] is 65.8 and 54.5 ± 20.4; in data set [12], 0.42; in [13], 25.6 and 21.2 ± 7.2; in [14] it was 1; in data set [15], 0; in data set [16], 54.7 and 45.5 ± 18.8. The Enhancement/wt is 1.5 and 1.3 ± 0.5 in data set [17]; 0 in data set [18]. Further, the kcat in data set [11] (pH 8.3) was found to be 3.00 ± 0.07 s⁻¹; in data set [13] (pH 8.3), 6.44 ± 0.22 s⁻¹; in data set [16] (pH 8.3) it was 1.80 ± 0.05 s⁻¹; in data set [17] (pH 8.3), 0.41 ± 0.02 s⁻¹. In addition, the kcat/KM is 1.21(±0.26) × 10^5 M^−1s^−1 in data set [11] (pH 8.3), 4.70(±0.67) × 10^4 M^−1s^−1 in [13] (pH 8.3), 2.96(±0.99)×10^3 M^−1s^−1 in data set [14] and 2.81(±0.65) × 10^3 M^−1s^−1 in data set [17] (pH 8.3). Further, the ability to hydrolyse result in [12], in [15] and in data set [18] was “lost the ability to hydrolyse” in each case.

`COP(=S)(OC)Oc1ccc([N+](=O)[O-])cc1` [Methyl-parathion, methyl-parathion]: the Catalytic activity in [2] is given as 3.68(±0.5) · 10^1 M^−1s^−1. Moreover, the Catalytic activity in [4] (pH 8) was 9.09 ± 0.9 M⁻¹ s⁻¹. Moreover, in data set [10], the Km was determined as 168 ± 31 µM, the kcat is given as 1.22(±0.13) × 10^−1 s^−1 and the kcat/KM amounted to 728 ± 156 M⁻¹ s⁻¹.

B1: SsoPox W263A: SEQ ID NO: 3 with substitution of tryptophan W in position 263 by alanine A (protein, listed as Sulfolobus solfataricus)
chain: T2 sequence (Q97VT7 1-314 C258L/I261F/W263A) with L258C, F261I
Take B1: the “relative lactonase activity in screening (3-oxo-C12 AHL hydrolysis)” value (shortened to “relative lactonase activity in screening”) in the data set with 3-oxo-C12 AHL is recorded as “selected for a potential lactonase activity improvement”.

B2: SsoPox W263V: SEQ ID NO: 3 with substitution of tryptophan W in position 263 by valine V (protein, listed as Sulfolobus solfataricus)
chain: T2 sequence (Q97VT7 1-314 C258L/I261F/W263A) with L258C, F261I, A263V
For B2, the “relative lactonase activity in screening” value in the data set on 3-oxo-C12 AHL is “selected for a potential lactonase activity improvement”. For the same molecule, the melting temperature in data set [19] came to 84.1±1.6 °C.

B3: SsoPox W263T: SEQ ID NO: 3 with substitution of tryptophan W in position 263 by threonine T (protein, listed as Sulfolobus solfataricus)
chain: T2 sequence (Q97VT7 1-314 C258L/I261F/W263A) with L258C, F261I, A263T
With B3, the “relative lactonase activity in screening” value with 3-oxo-C12 AHL is reported as “selected for a potential lactonase activity improvement”. In data set [19], this molecule had a melting temperature of 89.2±0.4 °C.

The values above are taken from US10072252B2 (priority 2013, dated 2018).
